Measured values published in patent US9023789B2, “Amylin analogs and pharmaceutical compositions thereof” (Novo Nordisk A/S, priority 2012, dated 2015).
Read-outs that look alike come from different tables or passages of the source. Numbered stars: 1 amine (or outer) side, 2 acyl side, 3 side chain; on linkers, the order of the positions; unused ones are H or OH. Bridge positions count the residues as written; N and C are the ends. Side chains are listed from the residue outwards. Peptide text beside a SMILES is read from it. * marks the point of attachment. C20 diacid = O=C(O)CCCCCCCCCCCCCCCCCCC(=O)*; γGlu = O=C(O)[C@H](CCC(=O)[*:2])N[*:1]; AEEA = NCCOCCOCC(=O)O

Experiments:
rat calcitonin receptor = molecular target: T1, rat calcitonin receptor (Rattus norvegicus, UniProt P32214); assay: ASSAY (VIII) binding to the rat calcitonin receptor; conditions: Table 7, read-out: rCTR bind IC50
T1 construct: expressed in transfected cells; host or cells: BHK tk'ts 13 (transient, FuGENE 6), membranes
T1 sequence (P32214 25-479 isoform P32214-2 limits assumed): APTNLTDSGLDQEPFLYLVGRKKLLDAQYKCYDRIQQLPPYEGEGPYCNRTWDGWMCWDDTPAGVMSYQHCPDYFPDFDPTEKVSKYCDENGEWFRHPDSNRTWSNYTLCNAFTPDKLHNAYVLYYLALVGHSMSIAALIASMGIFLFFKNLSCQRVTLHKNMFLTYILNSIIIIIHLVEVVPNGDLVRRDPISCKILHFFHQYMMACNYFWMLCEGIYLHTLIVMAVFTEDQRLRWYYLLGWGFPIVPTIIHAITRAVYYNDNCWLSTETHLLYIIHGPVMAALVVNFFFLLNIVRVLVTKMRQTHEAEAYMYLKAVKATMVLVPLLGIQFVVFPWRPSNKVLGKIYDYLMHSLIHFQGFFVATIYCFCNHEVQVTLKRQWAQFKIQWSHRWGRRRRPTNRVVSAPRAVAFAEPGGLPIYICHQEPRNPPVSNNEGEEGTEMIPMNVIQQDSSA
Outline: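 Transfect BHK tk′ts 13 cells transiently with rat calcitonin receptor, culture in DMEM containing 10% FBS, collect cells about 48 hours later, then prepare membranes.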

[1] = molecular target: T2, human amylin receptor (membranes from Amylin 3(a)/CRE-luc cells) (Homo sapiens, UniProt O60896+P30988); assay: ASSAY (V) binding to the human amylin receptor (SPA, 125I-rat amylin); conditions: for IC50: Table 4, read-out: hAmylin-R bind IC50;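 on all read-outs here: competition binding of cell membranes (35 ng/µL) mixed with SPA beads in 384-well plates at 40 µL total volume, read by scintillation counting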
T2 construct: expressed in transfected cells
T2 sequence (P30988 25-474): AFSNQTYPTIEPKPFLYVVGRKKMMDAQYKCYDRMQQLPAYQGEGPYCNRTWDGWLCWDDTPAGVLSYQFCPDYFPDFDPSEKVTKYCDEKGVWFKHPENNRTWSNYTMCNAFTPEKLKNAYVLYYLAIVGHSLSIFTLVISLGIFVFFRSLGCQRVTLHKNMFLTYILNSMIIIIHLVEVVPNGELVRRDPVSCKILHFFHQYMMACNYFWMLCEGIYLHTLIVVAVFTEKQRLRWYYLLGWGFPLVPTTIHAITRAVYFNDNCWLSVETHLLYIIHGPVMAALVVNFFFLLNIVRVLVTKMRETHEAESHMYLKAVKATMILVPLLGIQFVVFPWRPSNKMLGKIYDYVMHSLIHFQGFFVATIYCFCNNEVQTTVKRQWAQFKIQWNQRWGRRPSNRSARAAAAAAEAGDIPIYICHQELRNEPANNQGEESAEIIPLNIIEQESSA
T2 sequence (O60896 24-148 partner): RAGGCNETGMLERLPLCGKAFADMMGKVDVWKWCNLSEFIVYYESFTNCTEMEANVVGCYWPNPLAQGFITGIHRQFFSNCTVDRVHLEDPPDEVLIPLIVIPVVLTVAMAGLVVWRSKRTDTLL

[2] = molecular target: T3, rat amylin receptor (rat calcitonin receptor + rat RAMP 3) (Rattus norvegicus, UniProt P32214+Q9JJ73); assay: ASSAY (VI) binding to the rat amylin receptor; conditions: for IC50: binding to rat amylin receptor, read-out: rAmylin-R bind IC50
T3 construct: expressed in transfected cells; host or cells: BHK tk'ts 13 (transient, FuGENE 6), membranes
T3 sequence (P32214 25-479 isoform P32214-2 limits assumed): T1 sequence (P32214 25-479 isoform P32214-2 limits assumed)
T3 sequence (Q9JJ73 23-147 partner): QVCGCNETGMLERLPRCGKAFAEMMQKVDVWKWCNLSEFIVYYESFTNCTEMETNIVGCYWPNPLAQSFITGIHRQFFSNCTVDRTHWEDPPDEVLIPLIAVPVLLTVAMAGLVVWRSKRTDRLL
Outline: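 Binding to the rat amylin receptor was determined with membrane preparations. The receptor was expressed by transiently transfecting BHK tk′ts 13 cells with rat calcitonin receptor, using FuGENE® 6 (Roche) according to the manufacturer's recommendations. Roughly 48 hours later the cells were harvested and their membranes isolated.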

[3] = ASSAY (IV) determination of solubility; assay type: physicochemical
Outline: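 Polypeptide stock in water ([…]) was mixed 1:1 with 100 mM buffers: glycylglycine at pH 3.0, 4.0, 5.0 and bistrispropane at pH 6.0, 6.5, 7.0, 7.5, 8.0. After 18 hours at room temperature, samples were centrifuged and polypeptide concentration measured by UPLC.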

[4] = molecular target: T4, human amylin 3(a) receptor (human calcitonin receptor + RAMP-3) in BHK570 cells (Homo sapiens, UniProt O60896+P30988); assay: ASSAY (II)a functional assay, human amylin receptor (CRE luciferase); assay type: cell-based; conditions: for EC50: human amylin receptor functional potency, assay (II), read-out: hAmylin-R funct. EC50
T4 construct: expressed in transfected cells
Outline: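 BHK cells stably carrying a CRE-luciferase reporter plus calcitonin receptor, or calcitonin receptor with RAMP-3 for the amylin 3(a) receptor, were seeded and kept overnight at 37° C. Compounds were added in assay medium with 10% FBS and 10 mM Hepes, pH 7.4, for 3 hours at 37° C, then luminescence was counted.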

[5] = Table 5, selectivity, hCTR bind IC50 / hAmylin-R bind IC50
[6] = Table 5a, selectivity, hCTR bind IC50 / hAmylin-R bind IC50
[7] = Table 5b, selectivity, hCTR bind IC50 / hAmylin-R bind IC50
[8] = Table 5c, selectivity, hCTR bind IC50 / hAmylin-R bind IC50
[9] = Table 7, human binding selectivity, included for comparison
[10] = Table 7a (preferred compounds), human binding selectivity, included for comparison
[11] = ratio of human calcitonin receptor binding IC50 to human amylin receptor binding IC50
[12] = Table 7, rat binding selectivity, rCTR IC50 / rAmylin-R IC50
[13] = Table 7a (preferred compounds), rat binding selectivity, rCTR IC50 / rAmylin-R IC50
[14] = ratio of rCTR bind IC50 to rAmylin-R bind IC50
[15] = bistrispropane buffer, pH 6.5, read-out: Solubility pH 6.5 Concentration
[16] = bistrispropane buffer, pH 7.5, read-out: Solubility pH 7.5 Concentration
[17] = bistrispropane buffer, pH 6.0, read-out: Solubility pH 6.0 Concentration
[18] = bistrispropane buffer, pH 7.0, read-out: Solubility pH 7.0 Concentration
[19] = bistrispropane buffer, pH 8.0, read-out: Solubility pH 8.0 Concentration
[20] = glycylglycine buffer, pH 3.0, read-out: Solubility pH 3.0 Concentration
[21] = glycylglycine buffer, pH 4.0, read-out: Solubility pH 4.0 Concentration
[22] = glycylglycine buffer, pH 5.0, read-out: Solubility pH 5.0 Concentration
[23] = hCTR funct. EC50 divided by hAmylin-R funct. EC50
[24] = hCTR funct. EC50 over hAmylin-R funct. EC50
[25] = human functional selectivity: hCTR funct. EC50 / hAmylin-R funct. EC50

| IC50 (rat calcitonin receptor) [nM] | IC50 [1] [nM] | Ratio hCT/hAmylin binding [1, 5] | Ratio hCT/hAmylin binding [1, 6] | Ratio hCT/hAmylin binding [1, 7] | Ratio hCT/hAmylin binding [1, 8] | Ratio hCT/hAmylin binding [1, 9] | Ratio hCT/hAmylin binding [1, 10] | Ratio hCT/hAmylin binding [1, 11] | IC50 ([2]; Table 7) [nM] | Ratio rCT/rAmylin binding [2, 12] | Ratio rCT/rAmylin binding [2, 13] | Ratio rCT/rAmylin binding [2, 14] | solubility at 18 h [3, 15] [µM] | solubility at 18 h [3, 16] [µM] | solubility at 18 h [3, 17] [µM] | solubility at 18 h [3, 18] [µM] | solubility at 18 h [3, 19] [µM] | solubility at 18 h [3, 20] [µM] | solubility at 18 h [3, 21] [µM] | SMILES | also measured |
| --- | --- | --- | --- | --- | --- | --- | --- | --- | --- | --- | --- | --- | --- | --- | --- | --- | --- | --- | --- | --- | --- |
| 477 | 0.743 | 119.6 | 119.6 | 119.6 | 119.6 | 119.6 | 119.6 | 119.6 | 5.05 | 94.3 | 94.3 | 94.3 | ≥ 200 | ≥ 200 | ≥ 200 | ≥ 200 | ≥ 200 | ≥ 200 | ≥ 200 | CC[C@H](C)[C@H](NC(=O)[C@H](C)NC(=O)CNC(=O)[C@H](Cc1ccccc1)NC(=O)[C@H](CC(N)=O)NC(=O)[C@@H]1CCCN1C(=O)[C@H](CO)NC(=O)[C@H](CO)NC(=O)[C@H](Cc1c[nH]cn1)NC(=O)[C@H](CCCNC(=N)N)NC(=O)[C@H](CC(C)C)NC(=O)[C@H](Cc1ccccc1)NC(=O)[C@H](Cc1c[nH]cn1)NC(=O)[C@H](C)NC(=O)[C@H](CC(C)C)NC(=O)[C@H](CCCNC(=N)N)NC(=O)[C@H](CCC(N)=O)NC(=O)[C@@H](NC(=O)[C@H](C)NC(=O)[C@@H]1CSSC[C@H](NC(=O)[C@@H](N)CCCCNC(=O)COCCOCCNC(=O)CC[C@H](NC(=O)CCCCCCCCCCCCCCCCCCC(=O)O)C(=O)O)C(=O)N[C@@H](CC(N)=O)C(=O)N[C@@H]([C@@H](C)O)C(=O)N[C@@H](C)C(=O)N[C@@H]([C@@H](C)O)C(=O)N1)[C@@H](C)O)C(=O)N1CCC[C@H]1C(=O)N[C@@H](CO)C(=O)N[C@@H](CO)C(=O)N[C@H](C(=O)N[C@@H](CC(N)=O)C(=O)N[C@H](C(=O)NCC(=O)N[C@@H](CCCNC(=N)N)C(=O)N[C@@H](CC(N)=O)C(=O)N[C@H](C(=O)N[C@@H](Cc1ccc(O)cc1)C(N)=O)[C@@H](C)O)C(C)C)[C@@H](C)O [Example 84] (H-K([AEEA-γGlu-C20 diacid])CNTATCATQRLAHFLRHSSPNFGAIPSSTNVGRNTY-NH2; disulfide 2-7 (inferred); N-terminus assumed) | solubility at 18 h [3, 22]: ≥ 200 µM; Ratio hCT/hAmylin funct. [4, 23]: 32.5; Ratio hCT/hAmylin funct. [4, 24]: 32.5; EC50 [4]: 0.169 nM; Ratio hCT/hAmylin funct. [4, 25]: 32.5 |
| 60.4 | 0.29 | 68.1 | 68.1 | 68.1 | 68.1 | 68.1 | 68.1 | 68.1 | 1.67 | 36.2 | 36.2 | 36.2 | ≥ 200 | ≥ 200 | ≥ 200 | ≥ 200 | ≥ 200 | ≥ 200 | ≥ 200 | CC[C@H](C)[C@H](NC(=O)[C@H](C)NC(=O)CNC(=O)[C@H](Cc1ccccc1)NC(=O)[C@H](CC(N)=O)NC(=O)[C@@H]1CCCN1C(=O)[C@H](CO)NC(=O)[C@H](CO)NC(=O)[C@H](Cc1c[nH]cn1)NC(=O)[C@H](CCCNC(=N)N)NC(=O)[C@H](CC(C)C)NC(=O)[C@H](Cc1ccccc1)NC(=O)[C@H](Cc1c[nH]cn1)NC(=O)[C@H](C)NC(=O)[C@H](CC(C)C)NC(=O)[C@H](CCCNC(=N)N)NC(=O)[C@H](CCC(N)=O)NC(=O)[C@@H](NC(=O)[C@H](C)NC(=O)[C@@H]1CSSC[C@H](NC(=O)[C@@H](N)CCCCNC(=O)COCCOCCNC(=O)CC[C@H](NC(=O)CCCCCCCCCCCCCCCCCCC(=O)O)C(=O)O)C(=O)N[C@@H](CC(N)=O)C(=O)N[C@@H]([C@@H](C)O)C(=O)N[C@@H](C)C(=O)N[C@@H]([C@@H](C)O)C(=O)N1)[C@@H](C)O)C(=O)N1CCC[C@H]1C(=O)N[C@@H](CO)C(=O)N[C@@H](CO)C(=O)N[C@H](C(=O)N[C@@H](CC(N)=O)C(=O)N[C@H](C(=O)NCC(=O)N[C@@H](Cc1c[nH]cn1)C(=O)N[C@@H](CC(N)=O)C(=O)N[C@H](C(=O)N[C@@H](Cc1ccc(O)cc1)C(N)=O)[C@@H](C)O)C(C)C)[C@@H](C)O [Example 80] (H-K([AEEA-γGlu-C20 diacid])CNTATCATQRLAHFLRHSSPNFGAIPSSTNVGHNTY-NH2; disulfide 2-7; N-terminus assumed) | solubility at 18 h [3, 22]: ≥ 200 µM; Ratio hCT/hAmylin funct. [4, 23]: 15.4; Ratio hCT/hAmylin funct. [4, 24]: 15.4; EC50 [4]: 0.139 nM; Ratio hCT/hAmylin funct. [4, 25]: 15.4 |
